Measured values as given in patent US8759377B2, “Substituted dioxopiperidines and dioxopyrrolidines as MGLUR4 allosteric potentiators, compositions, and methods of treating neurological dysfunction” (Vanderbilt University, priority 2009, dated 2014).
Read-outs that look alike come from different tables or passages of the source.

How the values were obtained:
human mGluR4 = target: T1, human mGluR4 (Homo sapiens, UniProt Q14833); test: human mGluR4 potentiation, Ca2+-sensitive dye fluorescence assay in transfected CHO cells; type: cell-based; conditions: for Emax: CHO, maximum extent of potentiation, human mGluR4, read-out: hGluMax; for EC50: EC50 for potentiation, human mGluR4, with EC20 concentration of agonist, read-out: hEC50
T1 construct: expressed in transfected cells; host or cells: CHO cells
T1 sequence (Q14833 33-912): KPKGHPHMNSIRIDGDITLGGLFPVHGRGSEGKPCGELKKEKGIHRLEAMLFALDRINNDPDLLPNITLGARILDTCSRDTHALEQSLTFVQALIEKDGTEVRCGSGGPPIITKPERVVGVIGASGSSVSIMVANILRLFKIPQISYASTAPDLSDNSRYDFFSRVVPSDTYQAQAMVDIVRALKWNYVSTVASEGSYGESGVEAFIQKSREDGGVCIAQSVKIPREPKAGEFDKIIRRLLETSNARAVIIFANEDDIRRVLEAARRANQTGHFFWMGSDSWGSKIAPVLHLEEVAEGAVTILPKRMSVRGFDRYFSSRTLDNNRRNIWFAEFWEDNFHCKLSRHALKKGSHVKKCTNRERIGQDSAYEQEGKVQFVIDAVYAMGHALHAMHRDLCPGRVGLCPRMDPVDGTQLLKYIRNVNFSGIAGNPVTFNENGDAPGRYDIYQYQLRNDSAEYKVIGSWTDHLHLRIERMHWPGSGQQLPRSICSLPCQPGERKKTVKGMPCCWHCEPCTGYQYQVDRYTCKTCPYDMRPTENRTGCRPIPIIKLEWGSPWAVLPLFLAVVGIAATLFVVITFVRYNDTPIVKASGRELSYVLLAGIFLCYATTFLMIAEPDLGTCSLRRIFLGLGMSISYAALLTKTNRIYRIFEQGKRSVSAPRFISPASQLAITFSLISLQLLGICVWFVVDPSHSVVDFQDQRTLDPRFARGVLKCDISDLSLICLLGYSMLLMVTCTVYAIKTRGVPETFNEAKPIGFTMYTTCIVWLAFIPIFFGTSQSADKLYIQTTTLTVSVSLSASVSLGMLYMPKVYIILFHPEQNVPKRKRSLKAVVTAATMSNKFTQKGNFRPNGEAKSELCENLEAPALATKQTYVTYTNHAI
Method: (§1) The disclosed compounds and compositions can be evaluated for their ability to act as a potentiator of metabotropic glutamate receptor activity, in particular mGluR4 activity, by any suitable known methodology known in the art. For example, Chinese Hamster Ovary (CHO) cells transfected with human mGluR4 or HEK cells co-transfected with rat mGluR4 and the G-protein regulated Inwardly Rectifying Potassium channel (GIRK) were plated in clear bottom assay plates for assay in a Hamamatsu FDSS Fluorometric Plate Reader. The cells were loaded with either a Ca2+-sensitive fluorescent dye or the thallium responsive dye and the plates were washed and placed into a suitable kinetic plate reader. […] Approximately two and a half minutes later, a concentration of mGluR4 orthosteric agonist (e.g. glutamate or L-AP4) eliciting approximately 20% (EC20) of the maximal agonist response was added to the cells, and the response was measured. Two minutes later, a concentration of mGluR4 agonist (e.g. glutamate or L-AP4) eliciting 80% (EC80) of the maximal agonist response was added to the cells, and the response was measured. For rat mGluR4/GIRK experiments, a baseline was established for approximately five seconds, disclosed compounds were added, and either an EC20 or EC80 concentration of agonist was added approximately two and one half minutes later.
(§2) The above described assay operated in two modes. In the first mode, a range of concentrations of the disclosed compounds are added to cells, followed by a single fixed concentration of agonist. If the compound acts as a potentiatior, an EC50 value for potentiation and a maximum extent of potentiation by the compound at this concentration of agonist is determined by non-linear curve fitting. If the compound acts as a noncompetitive antagonist, an IC50 value is determined by non-linear curve fitting. In the second mode, several fixed concentrations of the disclosed compounds are added to various wells on a plate, followed by a range in concentrations of agonist for each concentration of disclosed compound. The ECso values for the agonist at each concentration of compound are determined by non-linear curve fitting. A decrease in the EC50 value of the agonist with increasing concentrations of the sample compound (a leftward shift of the agonist concentration-response curve) is an indication of the degree of mGluR4 potentiation at a given concentration of the sample compound. A decrease in the maximal response of the agonist with increasing concentrations of the sample compounds, with or without a rightward shift in agonist potency, is an indication of the degree of noncompetitive antagonism at mGluR4. The second mode also indicates whether the sample compounds also affect the maximum response to mGluR4 to agonists.

rat mGluR4 = target: T2, rat mGluR4 (Rattus norvegicus, UniProt P31423); test: rat mGluR4/GIRK potentiation, thallium responsive dye assay in co-transfected HEK cells; type: cell-based; conditions: for rGluMax: maximum extent of potentiation
T2 construct: expressed in transfected cells; host or cells: HEK cells
T2 sequence (P31423 33-912): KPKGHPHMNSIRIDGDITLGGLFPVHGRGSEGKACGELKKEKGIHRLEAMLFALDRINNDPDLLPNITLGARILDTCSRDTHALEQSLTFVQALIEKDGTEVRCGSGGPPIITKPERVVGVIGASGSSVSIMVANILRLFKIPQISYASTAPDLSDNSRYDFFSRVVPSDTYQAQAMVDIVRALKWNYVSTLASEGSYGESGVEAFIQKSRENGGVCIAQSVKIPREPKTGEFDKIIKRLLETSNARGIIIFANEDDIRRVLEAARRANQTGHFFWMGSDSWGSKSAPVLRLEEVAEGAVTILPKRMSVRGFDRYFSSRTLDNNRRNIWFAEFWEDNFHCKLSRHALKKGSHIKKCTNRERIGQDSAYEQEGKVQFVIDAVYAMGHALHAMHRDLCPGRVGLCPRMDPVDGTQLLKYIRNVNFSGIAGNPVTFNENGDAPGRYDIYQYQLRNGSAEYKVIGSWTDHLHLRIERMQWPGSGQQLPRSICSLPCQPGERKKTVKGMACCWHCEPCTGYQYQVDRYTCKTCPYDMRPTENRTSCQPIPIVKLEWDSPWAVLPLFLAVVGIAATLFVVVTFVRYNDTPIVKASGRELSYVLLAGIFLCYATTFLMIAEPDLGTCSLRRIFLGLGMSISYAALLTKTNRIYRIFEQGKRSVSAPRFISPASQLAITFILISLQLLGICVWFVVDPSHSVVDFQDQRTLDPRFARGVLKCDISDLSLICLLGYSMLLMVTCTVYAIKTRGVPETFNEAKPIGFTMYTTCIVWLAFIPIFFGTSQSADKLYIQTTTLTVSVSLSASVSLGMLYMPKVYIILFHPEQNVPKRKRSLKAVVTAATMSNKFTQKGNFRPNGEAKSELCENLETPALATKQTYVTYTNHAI
Method: as §1, §2

Structure (SMILES): O=C(Nc1ccc(N2C(=O)C3[C@H]4C=C[C@H](C4)[C@H]3C2=O)c(Cl)c1)c1ccccn1 (some centres unmarked) [Example 2]
- Emax (human mGluR4): 211%
- rGluMax (rat mGluR4; rat mGluR4/GIRK): 110.2

Structure (SMILES): O=C(Nc1ccc(N2C(=O)CCC2=O)c(Cl)c1)c1ccccn1 [Example 16, N-(3-chloro-4-(2,5-dioxopyrrolidin-1-yl)phenyl)picolinamide]
- Emax (human mGluR4): 119%
- EC50 (human mGluR4): 5940 nM

Structure (SMILES): O=C(Nc1ccc(N2C(=O)CCC2=O)c(Cl)c1)c1cccc(Cl)n1 [Example 18, 6-Chloro-N-(3-chloro-4-(2,5-dioxopyrrolidin-1-yl)phenyl)picolinamide]
- Emax (human mGluR4): 37%
- EC50 (human mGluR4): 2550 nM

Structure (SMILES): CC1(c2ccccc2)CC(=O)N(c2ccc(NC(=O)c3ccccn3)cc2Cl)C1=O (centres unmarked) [Example 6, N-(3-chloro-4-(3-methyl-2,5-dioxo-3-phenylpyrrolidin-1-yl)phenyl)picolinamide]
- Emax (human mGluR4): 245%

Structure (SMILES): O=C(Nc1ccc(N2C(=O)CCC2=O)c(Cl)c1)c1cscn1 [Example 21, N-(3-chloro-4-(2,5-dioxopyrrolidin-1-yl)phenyl)thiazole-4-carboxamide]
- Emax (human mGluR4): 62%
- EC50 (human mGluR4): 8660 nM

Structure (SMILES): O=C(Nc1ccc(N2C(=O)[C@@H]3[C@H](C2=O)[C@@H]2C=C[C@H]3CC2)c(Cl)c1)c1ccccn1 [Example 1]
- Emax (human mGluR4): 222%

Structure (SMILES): O=C(Nc1ccc(N2C(=O)[C@H]3CC[C@H](c4ccccc4)C[C@H]3C2=O)c(Cl)c1)c1ccccn1 [Example 7]
- Emax (human mGluR4): 209%
- EC50 (human mGluR4): 1950 nM

Structure (SMILES): O=C(Nc1ccc(N2C(=O)Cc3ccccc3C2=O)c(Cl)c1)c1ccccn1 [Example 13, N-(3-chloro-4-(1,3-dioxo-3,4-dihydroisoquinolin-2(1H)-yl)phenyl)picolinamide]
- Emax (human mGluR4): 256%
- EC50 (human mGluR4): 118 nM

Structure (SMILES): O=C(Nc1ccc(N2C(=O)CC(Cc3ccccc3Cl)(c3ccccc3)C2=O)c(Cl)c1)c1ccccn1 (centres unmarked) [Example 4, N-(3-chloro-4-(3-(2-chlorobenzyl)-2,5-dioxo-3-phenylpyrrolidin-1-yl)phenyl)picolinamide]
- Emax (human mGluR4): 88%
- EC50 (human mGluR4): 329 nM

Structure (SMILES): CC1(C)CC(=O)N(c2ccc(NC(=O)c3ccccn3)cc2Cl)C1=O [Example 5, N-(3-chloro-4-(3,3-dimethyl-2,5-dioxopyrrolidin-1-yl)phenyl)picolinamide]
- Emax (human mGluR4): 155%
- EC50 (human mGluR4): 1810 nM

Structure (SMILES): O=C(Nc1ccc(N2C(=O)CC3(CCCCC3)CC2=O)c(Cl)c1)c1ccccn1 [Example 14, N-(3-chloro-4-(2,4-dioxo-3-azaspiro[5.5]undecan-3-yl)phenyl)picolinamide]
- Emax (human mGluR4): 193%
- EC50 (human mGluR4): 163 nM

Structure (SMILES): O=C(Nc1ccc(N2C(=O)CCC2=O)c(Cl)c1)c1cccc(F)n1 [Example 17, N-(3-chloro-4-(2,5-dioxopyrrolidin-1-yl)phenyl)-6-fluoropicolinamide]
- Emax (human mGluR4): 40%
- EC50 (human mGluR4): 3130 nM

Structure (SMILES): O=C(Nc1ccc(N2C(=O)[C@H](c3ccccc3)[C@H](c3ccccc3)C2=O)c(Cl)c1)c1ccccn1 [Example 11, N-(3-chloro-4-((3R,4S)-2,5-dioxo-3,4-diphenylpyrrolidin-1-yl)phenyl)picolinamide]
- Emax (human mGluR4): 64%
- EC50 (human mGluR4): 1140 nM

Structure (SMILES): O=C(Nc1ccc(N2C(=O)[C@H]3CCCC[C@H]3C2=O)c(Cl)c1)c1ccccn1 [Example 9, N-(3-chloro-4-((3aR,7aS)-1,3-dioxo-1H-isoindol-2(3H,3aH,4H,5H,6H,7H,7aH)-yl)phenyl)picolinamide]
- Emax (human mGluR4): 116%

Structure (SMILES): O=C(Nc1ccc(N2C(=O)CCC2=O)c(Cl)c1)c1nccs1 [Example 20, N-(3-chloro-4-(2,5-dioxopyrrolidin-1-yl)phenyl)thiazole-2-carboxamide]
- Emax (human mGluR4): 69%
- EC50 (human mGluR4): 7730 nM

Structure (SMILES): O=C(Nc1ccc(N2C(=O)[C@@H]3CCCC[C@H]3C2=O)c(Cl)c1)c1ccccn1 [Example 8, N-(3-chloro-4-((3aR,7aR)-1,3-dioxo-1H-isoindol-2(3H,3aH,4H,5H,6H,7H,7aH)-yl)phenyl)picolinamide]
- Emax (human mGluR4): 189%
- EC50 (rat mGluR4; EC50 for potentiation, rat mGluR4/GIRK, with EC20 concentration of agonist, read-out: rEC50): 680 nM
- rGluMax (rat mGluR4; rat mGluR4/GIRK): 123.3

Structure (SMILES): O=C(Nc1ccc(N2C(=O)CC(c3ccccc3)C2=O)c(Cl)c1)c1ccccn1 (centres unmarked) [Example 3, N-(3-chloro-4-(2,5-dioxo-3-phenylpyrrolidin-1-yl)phenyl)picolinamide]
- Emax (human mGluR4): 219%
- EC50 (rat mGluR4): 690 nM
- rGluMax (rat mGluR4; rat mGluR4/GIRK): 128.7

Structure (SMILES): O=C(Nc1ccc(N2C(=O)CCC2=O)c(Cl)c1)c1ccncn1 [Example 19, N-(3-chloro-4-(2,5-dioxopyrrolidin-1-yl)phenyl) pyrimidine-4-carboxamide]
- Emax (human mGluR4): 46%
- EC50 (human mGluR4): 10000 nM

Structure (SMILES): CC1CCC2C(=O)N(c3ccc(NC(=O)c4ccccn4)cc3Cl)C(=O)C2C1 (centres unmarked) [Example 10, N-(3-chloro-4-(5-methyl-1,3-dioxo-1H-isoindol-2(3H,3 aH,4H,5H,6H,7H,7aH)-yl)phenyl)picolinamide]
- Emax (human mGluR4): 215%
- EC50 (human mGluR4): 574 nM

Structure (SMILES): O=C(Nc1ccc(N2C(=O)C3=C(C2=O)c2ccccc2CC3)c(Cl)c1)c1ccccn1 [Example 12, N-(3-chloro-4-(1,3-dioxo-4,5-dihydro-1H-benzo[e]isoindol-2(3H)-yl)phenyl)picolinamide]
- Emax (human mGluR4): 276%
- EC50 (human mGluR4): 254 nM

Structure (SMILES): O=C(Nc1ccc(N2C(=O)CC3(CCCCC3)C2=O)c(Cl)c1)c1ccccn1 [Example 15, N-(3-chloro-4-(1,3-dioxo-2-azaspiro[4.5]decan-2-yl)phenyl)picolinamide]
- Emax (human mGluR4): 139%
- rGluMax (rat mGluR4; rat mGluR4/GIRK): 86.1
